Measured values: PMC10377034, “Syntheses of 25-Adamantyl-25-alkyl-2-methylidene-1α,25-dihydroxyvitamin D3 Derivatives with Structure–Function Studies of Antagonistic and Agonistic Active Vitamin D Analogs” (Biomolecules, 2023)
Like-named read-outs stand apart in the source and are kept apart here. Values belong to the compound of their own block, whether it stands above or below them.

Columns and labels:
[1] = test system: VDR; details: literature values, cited from earlier work; for EC50: read-out: Transcriptional Activity EC50
[2] = test system: VDR; details: cited from earlier work; for IC50: literature values, read-out: VDR Affinity IC50; for VDR affinity, % of that of 1: relative to 1,25(OH)2D3 (1)
[3] = test system: VDR; details: antagonist activity for 1; read-out: Antagonistic Activity IC50; cited from earlier work
[4] = test system: CYP24A1 expression in U937 cells; experiment: CYP24A1 expression (RT-qPCR) in U937 cells; details: U937 blood cells, 100 nM, 24 h
Protocol: (§1) SW480 human colon carcinoma cells (American Type Culture Collection, Manassas, VA) and HaCaT immortalized keratinocyte cells (kindly provided by Dr. Tadashi Terui, Department of Dermatology, Nihon University School of Medicine) were cultured in DMEM containing 10% FBS, 100 U/mL penicillin, and 0.1 mg/mL streptomycin. […] All cells were cultured at 37 °C in a humidified atmosphere containing 5% CO2.
(§2) For gene expression analysis, 1 × 10^4 cells per well were plated in a 24-well plate. After 24 h, the cells were treated with an ethanol control or 100 nM of each test compound for 24 h. The total RNAs from the samples were extracted using the acid guanidine thiocyanate phenol/chloroform method [57], and cDNAs were synthesized using the ImProm-II reverse transcription system (Promega, Madison, WI) [43]. Real-time PCR was performed on the ABI PRISM 7000 sequence detection system (Thermo Fisher Scientific, Waltham, MA, USA) using Power SYBR Green PCR master mix (Thermo Fisher Scientific).
(§3) One-way ANOVA followed by Turkey’s multiple comparisons: ※ p < 0.05, ※※ p < 0.01, ※※※ p < 0.001 versus vehicle control.

[5] = test system: CYP24A1 expression in HEK293 cells; experiment: CYP24A1 expression (RT-qPCR) in HEK293 cells; details: HEK293 kidney cells, 100 nM, 24 h
Protocol: (§4) HEK293 human kidney cells (RIKEN Cell Bank, Tsukuba, Japan) were cultured in Dulbecco’s modified Eagle’s medium (DMEM) (Fujifilm Wako Pure Chemical Corporation, Tokyo, Japan) containing 5% fetal bovine serum (FBS), 100 U/mL penicillin, and 0.1 mg/mL streptomycin (Nacalai Tesque, Kyoto, Japan). SW480 human colon carcinoma cells (American Type Culture Collection, Manassas, VA) and HaCaT immortalized keratinocyte cells (kindly provided by Dr. Tadashi Terui, Department of Dermatology, Nihon University School of Medicine) were cultured in DMEM containing 10% FBS, 100 U/mL penicillin, and 0.1 mg/mL streptomycin. MG63 human osteosarcoma cells (RIKEN Cell Bank) and lung-derived H292 cells (American Type Culture Collection) were cultured in minimum essential medium containing 10% FBS, 100 U/mL penicillin, and 0.1 mg/mL streptomycin. […] All cells were cultured at 37 °C in a humidified atmosphere containing 5% CO2.
(§5) For gene expression analysis, 1 × 10^4 cells per well were plated in a 24-well plate. After 24 h, the cells were treated with an ethanol control or 100 nM of each test compound for 24 h. […] Real-time PCR was performed on the ABI PRISM 7000 sequence detection system (Thermo Fisher Scientific, Waltham, MA, USA) using Power SYBR Green PCR master mix (Thermo Fisher Scientific).

[6] = target: T1, VDR with SRC-1 (Homo sapiens, UniProt P11473); experiment: Mammalian two-hybrid assay, VDR binding to SRC-1
T1 sequence (P11473 1-427): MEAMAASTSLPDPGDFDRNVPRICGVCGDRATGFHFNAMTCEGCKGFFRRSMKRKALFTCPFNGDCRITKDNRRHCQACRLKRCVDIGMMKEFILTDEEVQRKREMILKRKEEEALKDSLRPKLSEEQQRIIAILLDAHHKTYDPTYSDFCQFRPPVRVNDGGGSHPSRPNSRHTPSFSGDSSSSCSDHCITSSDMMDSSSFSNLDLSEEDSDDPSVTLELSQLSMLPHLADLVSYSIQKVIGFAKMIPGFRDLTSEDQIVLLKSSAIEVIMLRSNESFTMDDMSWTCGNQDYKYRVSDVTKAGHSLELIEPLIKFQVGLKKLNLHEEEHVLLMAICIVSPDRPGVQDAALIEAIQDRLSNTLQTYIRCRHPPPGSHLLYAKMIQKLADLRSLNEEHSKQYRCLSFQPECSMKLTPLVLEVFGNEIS
T1 sequence (Q15788 595-771 partner limits assumed): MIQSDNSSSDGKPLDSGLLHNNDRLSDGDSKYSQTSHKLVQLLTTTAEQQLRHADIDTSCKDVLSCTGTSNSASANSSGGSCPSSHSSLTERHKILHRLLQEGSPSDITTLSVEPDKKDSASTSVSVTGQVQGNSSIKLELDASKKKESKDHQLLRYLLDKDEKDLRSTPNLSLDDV
Protocol: (§6) We used the expression plasmids pCMX-VDR, pCMX-VP16- VDR, pCMX-GAL4-RXRα, pCMX-GAL4-SRC-1, and pCMX-GAL4- N-CoR, as reported previously [43]. […] We used luciferase reporters: VDR-responsive Sppx3-tk-LUC and GAL4-responsive MH100(UAS) × 4-tk-LUC reporters [43].
(§7) Transfections of 50 ng of TK-Spp × 3-LUC reporter plasmid, 10 ng of pCMX-β-galactosidase, and 15 ng of pCMX-VDR for each well of a 96-well plate were performed in HEK293 cells using the calcium phosphate coprecipitation method, as described previously [43]. The mammalian two-hybrid assay for cofactor interaction with VDR used 50 ng of TK-MH100(UAS) × 3- LUC reporter plasmid, 10 ng of pCMX-β-galactosidase, 15 ng of pCMX-GAL4-RXRα, pCMX-GAL4-SRC1, or pCMX-GAL4-NCoR, and 15 ng of pCMX-VP16-VDR for each well of a 96-well plate. Luciferase and β-galactosidase activities were measured with a luminometer and a microplate reader (Molecular Devices, Sun Jose, CA, USA), respectively. Luciferase values were normalized to the internal β-galactosidase control.
(§8) (B) Effects on the interactions between the VDR and SRC-1. HEK293 cells were co-transfected with CMX-GAL4-SRC-1, CMX-VP16-VDR, and MH100 (UAS) × 4-tk-LUC and were treated with each compound over a range of concentrations. (C) Effects on interactions of the VDR with NCoR-1. HEK293 cells were co-transfected with CMX-GAL4-N-CoR in combination with CMX-VP16-VDR and MH100 (UAS) × 4-tk-LUC and were treated with each compound over a range of concentrations.

[7] = target: T2, recombinant hVDR-LBD (Homo sapiens, UniProt P11473); details: relative to 1,25(OH)2D3
T2 sequence (P11473 140-427): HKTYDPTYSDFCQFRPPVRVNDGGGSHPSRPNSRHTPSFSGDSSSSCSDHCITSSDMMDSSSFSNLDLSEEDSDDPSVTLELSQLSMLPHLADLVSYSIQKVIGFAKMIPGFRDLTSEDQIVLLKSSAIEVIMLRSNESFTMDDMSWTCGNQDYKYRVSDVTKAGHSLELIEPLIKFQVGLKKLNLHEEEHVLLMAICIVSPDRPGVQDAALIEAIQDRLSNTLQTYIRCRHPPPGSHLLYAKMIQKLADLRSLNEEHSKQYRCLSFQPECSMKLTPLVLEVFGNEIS
Protocol: (§9) The pGEX-hVDR and pGEX were expressed for a GST-VDR fusion protein and a control GST protein, respectively, in Escherichia coli BL21 (Merck, Darmstadt, Germany). The bacteria were lysed by sonication in a sonication buffer (50 mM Tris-HCl, pH 8.0, 50 mM NaCl, 1 mM EDTA, and 1 mM DTT). The supernatant proteins (1 μg) were diluted in a binding buffer (25 mM Tris, pH 7.5, 100 mM KCl, 25 mM DTT, 4 mM CHAPS, pH 7.5) containing bovine serum albumin (100 μg/mL). A solution containing each test compound in 15 μL of EtOH was added to 570 μL of the GST protein solution in each tube. After being vortexed 2–3 times, the mixture was incubated for 30 min at room temperature. […] After being vortexed 2–3 times, the whole mixture was allowed to stand at 4 °C for 20 h, and 400 μL of dextran-coated charcoal solution (Sigma) was added to remove free ligands.
(§10) All values represent the means, and error bars are the standard deviations derived from triplicate assays.

[8] = target: T3, hVDR (Homo sapiens, UniProt P11473); experiment: VDR transactivation luciferase reporter assay in HEK293 cells (SPP×3-tk-LUC); type: cell-based; details: for Transcriptional activity efficacy: 1,25(OH)2D3 = 100%; for Emax / EC50: this study; for Emax: read-out: Transcriptional Activity % Efficacy of That of 1 (converted); for EC50: read-out: Transcriptional Activity EC50
T3 construct: expressed in transfected cells; host or cells: HEK293
T3 sequence (P11473 1-427): T1 sequence (P11473 1-427)
Protocol: The transcriptional activity of the 25-alkylvitamin D analogs on the VDR was evaluated via a luciferase reporter assay in HEK293 human kidney cells transfected with an hVDR expression vector and a luciferase reporter with mouse osteopontin vitamin D response elements (VDREs, SPP×3-tk-LUC).
Transfections of 50 ng of TK-Spp × 3-LUC reporter plasmid, 10 ng of pCMX-β-galactosidase, and 15 ng of pCMX-VDR for each well of a 96-well plate were performed in HEK293 cells using the calcium phosphate coprecipitation method, as described previously. The mammalian two-hybrid assay for cofactor interaction with VDR used 50 ng of TK-MH100(UAS) × 3- LUC reporter plasmid, 10 ng of pCMX-β-galactosidase, 15 ng of pCMX-GAL4-RXRα, pCMX-GAL4-SRC1, or pCMX-GAL4-NCoR, and 15 ng of pCMX-VP16-VDR for each well of a 96-well plate. Luciferase and β-galactosidase activities were measured with a luminometer and a microplate reader (Molecular Devices, Sun Jose, CA, USA), respectively. Luciferase values were normalized to the internal β-galactosidase control.
HEK293 cells were co-transfected with TK-Spp × 3-LUC reporter plasmid and pCMX−VDR, and 8 h after transfection the cells were treated with several concentrations of each compound. After 24 h, the cells were harvested for assaying luciferase and β-galactosidase activity using a luminometer (Molecular Devices, Sunnyvale, CA, USA).

[9] = target: T4, VDR with NCoR (Homo sapiens, UniProt P11473); experiment: Mammalian two-hybrid assay, dissociation of NCoR from the VDR
T4 sequence (P11473 1-427): T1 sequence (P11473 1-427)
Protocol: as §6, §7, §8

[10] = test system: CYP24A1 expression in HaCaT cells; experiment: CYP24A1 expression (RT-qPCR) in HaCaT cells; details: HaCaT skin cells, 100 nM, 24 h
Protocol: as §1, §2, §3

[11] = target: T5, VDR with RXRα (Homo sapiens, UniProt P11473); experiment: Mammalian two-hybrid assay, interaction of the VDR with RXRα
T5 sequence (P11473 1-427): T1 sequence (P11473 1-427)
T5 sequence (P19793 1-462 partner): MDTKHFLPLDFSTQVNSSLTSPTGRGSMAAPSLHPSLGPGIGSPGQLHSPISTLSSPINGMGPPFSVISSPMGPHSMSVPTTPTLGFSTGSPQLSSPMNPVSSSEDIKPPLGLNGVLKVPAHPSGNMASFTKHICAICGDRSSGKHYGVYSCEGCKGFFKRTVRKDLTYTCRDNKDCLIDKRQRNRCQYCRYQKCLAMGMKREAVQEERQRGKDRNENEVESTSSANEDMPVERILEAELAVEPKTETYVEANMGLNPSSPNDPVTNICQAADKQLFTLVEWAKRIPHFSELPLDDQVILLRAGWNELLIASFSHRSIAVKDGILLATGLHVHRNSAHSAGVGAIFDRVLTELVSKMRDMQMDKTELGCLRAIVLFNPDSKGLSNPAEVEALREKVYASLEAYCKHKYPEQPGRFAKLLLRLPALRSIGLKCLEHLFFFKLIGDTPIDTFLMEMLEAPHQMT
Protocol: as §6, §7, §8

[12] = test system: CYP24A1 expression in SW480 cells; experiment: CYP24A1 expression (RT-qPCR) in SW480 cells; details: SW480 intestine cells, 100 nM, 24 h
Protocol: as §4, §5

[13] = test system: CYP24A1 expression in H292 cells; experiment: CYP24A1 expression (RT-qPCR) in H292 cells; details: H292 lung cells, 100 nM, 24 h
Protocol: as §4, §5

[14] = test system: CYP24A1 expression in MG63 cells; experiment: CYP24A1 expression (RT-qPCR) in MG63 cells; details: MG63 bone cells, 100 nM, 24 h
Protocol: as §4, §5

[15] = target: T2, recombinant hVDR-LBD; experiment: biochemical
Protocol: as §9, §10

[16] = test system: human dedifferentiated fat (DFAT) cells; experiment: Osteogenic differentiation assay: ALP activity in human DFAT cells; type: cell-based; details: osteogenic medium, 100 nM, 7 days, natural hormone 1 = 100%
Protocol: Mature adipocytes from the adipose tissue of mammals such as humans and rodents can be dedifferentiated into pluripotent cells using ceiling culture. Dedifferentiated fat (DFAT) cells have potential applications in both regenerative medicine and injury healing, as well as mesenchymal stem cells, embryonic stem cells, and induced pluripotent stem cells. The osteogenic activity of vitamin D derivatives was assessed based on alkaline phosphatase (ALP) activity.
Samples of human subcutaneous adipose tissue were obtained from patients who underwent surgery in the Department of Pediatric Surgery at Nihon University Itabashi Hospital (Tokyo, Japan). The patients gave their written informed consent, and the Ethics Committee of Nihon University School of Medicine approved this study. We prepared dedifferentiated fat (DFAT) cells using the ceiling culture method, as described previously. Briefly, the adipose tissue (approximately 1 g) was cut into small pieces and digested with a 0.1% type I collagenase solution (Koken Co., Ltd., Tokyo, Japan). […] The cells that adhered to the upper surface of the flasks were cultured for conversion to dedifferentiated fat cells. […] Cells at passages 2–4 were used for differentiation experiments.
Cells were grown to confluency in 24-well plates and incubated for a week in DMEM containing 10% FBS, 100 nM dexamethasone (Merk), 10 mM β-glycerophosphate (Merk), and […] L-ascorbic acid-2-phosphate (Merk), with 100 nM of each compound. The induction medium was replaced on day 4. The alkaline phosphatase (ALP) activity in the cell lysates was determined on day 7 with a lab assay ALP kit (Fujifilm wako). The total protein content was determined with the BCA protein assay kit (Thermo Fisher Scientific). ALP levels were normalized to the total protein content.

Structure (SMILES): C=C1[C@H](O)CC(=C/C=C2\CCC[C@]3(C)[C@@H]([C@@H](C)/C=C/C[C@H](O)CC45CC6CC(CC(C6)C4)C5)CC[C@@H]23)C[C@H]1O [ADMI3, (25S)-26-adamantyl-25-hydroxy-2-methylene-22,23-didehydro-19,27-dinor-20-epi-vitamin D3]
- Transcriptional Activity % Efficacy of That of 1 [1]: 10%
- IC50 [2]: 0.6 nM
- VDR affinity, % of that of 1 [2]: 17%

Structure (SMILES): C=C1/C(=C\C=C2/CCC[C@]3(C)[C@@H]([C@H](C)CC#C[C@@H](O)C45CC6CC(CC(C6)C4)C5)CC[C@@H]23)C[C@@H](O)C[C@@H]1O [ADOR1, 25 S-sdamantyl-23-yne-26,27-dinor-1α,25-dihydroxyvitamin D(3)]
- Transcriptional Activity % Efficacy of That of 1 [1]: 87%
- EC50 [1]: 0.03 nM
- IC50 [2]: 0.24 nM

Structure (SMILES): C=C1[C@H](O)CC(=C/C=C2\CCC[C@]3(C)[C@@H]([C@@H](C)/C=C/C[C@@H](O)C45CC6CC(CC(C6)C4)C5)CC[C@@H]23)C[C@H]1O [ADTT]
- IC50 [3]: 3 nM
- Transcriptional Activity % Efficacy of That of 1 [1]: 15%
- EC50 [1]: 1 nM
- IC50 [2]: 0.13 nM
- VDR affinity, % of that of 1 [2]: 67%

- EC50 [6]: 0.6 nM
- VDR affinity, % of that of 1,25(OH)2D3 [7]: 67%
- Transcriptional activity efficacy [8]: 101%
- Emax [8]: 101%
- EC50 [8]: 0.2 nM
- IC50 [9]: 0.4 nM
- EC50 [11]: 0.1 nM
- IC50 [15]: 0.6 nM
Structure (SMILES): C=C1[C@H](O)CC(=C/C=C2\CCC[C@]3(C)[C@@H]([C@H](C)CC#C[C@@](C)(O)C45CC6CC(CC(C6)C4)C5)CC[C@@H]23)C[C@H]1O [ADKM2, (25S)-25-(1-Adamantyl)-1α,25-dihydroxy-2-methylidene-23-yne-19,27-dinorvitamin D3]
- CYP24A1 expression relative to natural hormone 1 [4]: 77.8%
- CYP24A1 expression relative to natural hormone 1 [5]: 33.2%
- CYP24A1 expression relative to natural hormone 1 [10]: 85.6%
- CYP24A1 expression relative to natural hormone 1 [12]: 42.3%
- CYP24A1 expression relative to natural hormone 1 [13]: 50.1%
- CYP24A1 expression relative to natural hormone 1 [14]: 63%
- ALP activity [16]: 98.8%

Structure (SMILES): C=C1/C(=C\C=C2/CCC[C@]3(C)[C@@H]([C@H](C)CCCC(C)(C)O)CC[C@@H]23)C[C@@H](O)C[C@@H]1O [1,25(OH)2D3, 1α,25-dihydroxyvitamin D3]
- ALP activity [16]: 100%

Structure (SMILES): C=C1/C(=C\C=C2/CCC[C@]3(C)[C@@H]([C@H](C)/C=C/[C@@H](O)C4(C(=O)O/C=C\C(=O)OCC)CC4)CC[C@@H]23)C[C@@H](O)C[C@@H]1O [ZK168281]
- IC50 [3]: 50 nM

Structure (SMILES): C=C1C[C@H](C[C@@H](C)[C@H]2CC[C@H]3/C(=C/C=C4/C[C@@H](O)C[C@H](O)C4=C)CCC[C@]23C)OC1=O [TEI-9647, (23S)-25-dehydro-1α-hydroxyvitamin D3-26,23-lactone]
- IC50 [3]: 100 nM
- EC50 [1]: 50 nM
- IC50 [2]: 1 nM

Structure (SMILES): C=C1/C(=C\C=C2/CCC[C@]3(C)[C@@H]([C@H](C)CC#C[C@H](O)C45CC6CC(CC(C6)C4)C5)CC[C@@H]23)C[C@@H](O)C[C@@H]1O [ADOR2]
- Transcriptional Activity % Efficacy of That of 1 [1]: > 52%
- EC50 [1]: 5.7 nM
- IC50 [2]: 0.6 nM

- EC50 [6]: 1.2 nM
- VDR affinity, % of that of 1,25(OH)2D3 [7]: 27%
- Transcriptional activity efficacy [8]: 104%
- Emax [8]: 104%
- EC50 [8]: 0.2 nM
- IC50 [9]: 0.5 nM
- EC50 [11]: 1.1 nM
- IC50 [15]: 1.3 nM
Structure (SMILES): C=C1[C@H](O)CC(=C/C=C2\CCC[C@]3(C)[C@@H]([C@H](C)CC#C[C@](O)(CC)C45CC6CC(CC(C6)C4)C5)CC[C@@H]23)C[C@H]1O [ADKM4, (25S)-25-(1-Adamantyl)-1a,25-dihydroxy-26-methyl-2-methylidene-23-yne-19,27-dinorvitamin D3]
- CYP24A1 expression relative to natural hormone 1 [4]: 85.1%
- CYP24A1 expression relative to natural hormone 1 [5]: 91.5%
- CYP24A1 expression relative to natural hormone 1 [10]: 91.9%
- CYP24A1 expression relative to natural hormone 1 [12]: 126%
- CYP24A1 expression relative to natural hormone 1 [13]: 113%
- CYP24A1 expression relative to natural hormone 1 [14]: 73.3%
- ALP activity [16]: 72.6%
